The values below come from patent US11541028B2, “Peptide pharmaceuticals for treatment of NASH and other disorders” (Mederis Diabetes LLC, priority 2018, dated 2023).

SMILES strings stand for the structures.

One may read the EC50 as the concentration giving half of the maximal effect.

For one experiment, the target named is T1, human GLP-1 receptor (Homo sapiens, UniProt P43220).
T1 construct: host or cells: CHO cells
The experiment in a line: DiscoveRx LeadHunter cellular assay, cAMP stimulation, GLP-1 receptor in CHO cells. To be noted: human GLP-1 receptor in CHO cells (DiscoveRx); read-out: EC50 cAMP GLP-1 R. Type of experiment: cell-based.

Another experiment concerns the target T2, human glucagon receptor (Homo sapiens, UniProt P47871).
T2 construct: host or cells: CHO cells
The experiment in a line: DiscoveRx LeadHunter cellular assay, cAMP stimulation, glucagon receptor in CHO cells. It is filed as cell-based.

T2 sequence (P47871 26-477): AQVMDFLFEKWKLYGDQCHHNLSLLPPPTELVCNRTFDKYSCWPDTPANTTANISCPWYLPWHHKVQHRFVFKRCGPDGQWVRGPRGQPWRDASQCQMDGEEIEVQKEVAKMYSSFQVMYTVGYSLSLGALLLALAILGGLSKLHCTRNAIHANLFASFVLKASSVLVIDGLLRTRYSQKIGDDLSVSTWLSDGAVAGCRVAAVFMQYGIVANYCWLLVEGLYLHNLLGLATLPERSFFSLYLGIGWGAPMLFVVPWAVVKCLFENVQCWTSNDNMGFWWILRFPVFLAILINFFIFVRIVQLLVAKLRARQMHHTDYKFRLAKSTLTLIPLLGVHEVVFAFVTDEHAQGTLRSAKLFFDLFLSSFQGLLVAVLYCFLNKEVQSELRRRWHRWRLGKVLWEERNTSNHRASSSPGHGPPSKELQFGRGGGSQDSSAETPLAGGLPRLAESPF
T1 sequence (P43220 24-463): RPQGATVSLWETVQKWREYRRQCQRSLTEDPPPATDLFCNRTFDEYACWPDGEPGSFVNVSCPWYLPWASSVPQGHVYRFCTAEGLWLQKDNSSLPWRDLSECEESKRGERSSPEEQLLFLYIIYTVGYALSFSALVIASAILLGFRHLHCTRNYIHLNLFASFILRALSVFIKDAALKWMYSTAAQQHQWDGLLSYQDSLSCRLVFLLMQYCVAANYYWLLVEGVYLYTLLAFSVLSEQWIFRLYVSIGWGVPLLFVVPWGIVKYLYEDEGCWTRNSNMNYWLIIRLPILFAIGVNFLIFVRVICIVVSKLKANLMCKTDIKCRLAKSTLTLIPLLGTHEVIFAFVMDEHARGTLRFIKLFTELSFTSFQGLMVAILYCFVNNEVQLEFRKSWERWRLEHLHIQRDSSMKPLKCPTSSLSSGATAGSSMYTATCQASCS
Method for human GLP-1 receptor: (§1) A further series of cellular assays was carried out with standard cellular assays (DiscoveRx, LeadHunter assays) using readout of cAMP stimulation or arrestin activation. Compounds were weighed precisely in an amount of about 1 mg and shipped to DiscoveRx for dilution and assay.
Method for human glucagon receptor: as §1

Take `CCCCCCCCCCCCCCO[C@@H]1O[C@H](CO[C@H]2O[C@H](C(=O)NCCCC[C@H](N)C(=O)NCCCC[C@H](NC(=O)[C@@H](NC(=O)[C@H](Cc3ccccc3)NC(=O)[C@H](CCC(=O)O)NC(=O)[C@@H]3CCCCNC(=O)CC[C@H](NC(=O)[C@H](CC(=O)O)NC(=O)[C@H](CC(C)C)NC(=O)[C@H](Cc4ccc(O)cc4)NC(=O)[C@H](CCCCN)NC(=O)[C@H](CO)NC(=O)[C@H](Cc4ccc(O)cc4)NC(=O)[C@H](CC(=O)O)NC(=O)[C@H](CO)NC(=O)[C@@H](NC(=O)[C@H](Cc4ccccc4)NC(=O)[C@@H](NC(=O)CNC(=O)[C@H](CCC(N)=O)NC(=O)C(C)(C)NC(=O)[C@@H](N)Cc4c[nH]cn4)[C@@H](C)O)[C@@H](C)O)C(=O)N[C@@H](CCC(N)=O)C(=O)N[C@@H](C)C(=O)N[C@@H](C)C(=O)N3)[C@@H](C)CC)C(=O)N[C@@H](Cc3c[nH]c4ccccc34)C(=O)N[C@@H](CC(C)C)C(=O)N[C@@H](CC(C)C)C(=O)N[C@@H](CCC(N)=O)C(=O)N[C@H](C(=O)O)[C@@H](C)O)[C@H](O)[C@H](O)[C@H]2O)[C@@H](O)[C@H](O)[C@H]1O` [EU-A1612]: the EC50 is 0.011 nM on human GLP-1 receptor and 0.059 nM on human glucagon receptor.

Consider `CCCCCCCCCCCCO[C@@H]1O[C@H](CO[C@H]2O[C@H](C(=O)N[C@@H](CCC(=O)NCCCC[C@H](NC(=O)[C@@H](NC(=O)[C@H](Cc3ccccc3)NC(=O)[C@H](CCC(=O)O)NC(=O)[C@@H]3CCCCNC(=O)CC[C@H](NC(=O)[C@H](CC(=O)O)NC(=O)[C@H](CC(C)C)NC(=O)[C@H](Cc4ccc(O)cc4)NC(=O)[C@H](CCCCN)NC(=O)[C@H](CO)NC(=O)[C@H](Cc4ccc(O)cc4)NC(=O)[C@H](CC(=O)O)NC(=O)[C@H](CO)NC(=O)[C@@H](NC(=O)[C@H](Cc4ccccc4)NC(=O)[C@@H](NC(=O)CNC(=O)[C@H](CCC(N)=O)NC(=O)C(C)(C)NC(=O)[C@@H](N)Cc4c[nH]cn4)[C@@H](C)O)[C@@H](C)O)C(=O)N[C@@H](CCC(N)=O)C(=O)N[C@@H](C)C(=O)N[C@@H](C)C(=O)N3)[C@@H](C)CC)C(=O)N[C@@H](Cc3c[nH]c4ccccc34)C(=O)N[C@@H](CC(C)C)C(=O)N[C@@H](CC(C)C)C(=O)N[C@@H](CCC(N)=O)C(=O)N[C@H](C(=O)O)[C@@H](C)O)C(=O)O)[C@H](O)[C@H](O)[C@H]2O)[C@@H](O)[C@H](O)[C@H]1O` [EU-A1616], for which the EC50 worked out at 0.079 nM on human GLP-1 receptor and 0.204 nM on human glucagon receptor.

Consider `CCCCCCCCCCCCCCO[C@@H]1O[C@H](CO[C@H]2O[C@H](C(=O)N[C@@H](CCC(=O)NCCCC[C@H](NC(=O)[C@@H](NC(=O)[C@H](Cc3ccccc3)NC(=O)[C@H](CCC(=O)O)NC(=O)[C@@H]3CCCCNC(=O)CC[C@H](NC(=O)[C@H](CC(=O)O)NC(=O)[C@H](CC(C)C)NC(=O)[C@H](Cc4ccc(O)cc4)NC(=O)[C@H](CCCCN)NC(=O)[C@H](CO)NC(=O)[C@H](Cc4ccc(O)cc4)NC(=O)[C@H](CC(=O)O)NC(=O)[C@H](CO)NC(=O)[C@@H](NC(=O)[C@H](Cc4ccccc4)NC(=O)[C@@H](NC(=O)CNC(=O)[C@H](CCC(N)=O)NC(=O)C(C)(C)NC(=O)[C@@H](N)Cc4c[nH]cn4)[C@@H](C)O)[C@@H](C)O)C(=O)N[C@@H](CCC(N)=O)C(=O)N[C@@H](C)C(=O)N[C@@H](C)C(=O)N3)[C@@H](C)CC)C(=O)N[C@@H](Cc3c[nH]c4ccccc34)C(=O)N[C@@H](CC(C)C)C(=O)N[C@@H](CC(C)C)C(=O)N[C@@H](CCC(N)=O)C(=O)N[C@H](C(=O)O)[C@@H](C)O)C(=O)O)[C@H](O)[C@H](O)[C@H]2O)[C@@H](O)[C@H](O)[C@H]1O` [EU-A1617], for which the EC50 on human GLP-1 receptor amounted to 0.119 nM; on human glucagon receptor, 0.598 nM.

Take `CCCCCCCCCCCCO[C@@H]1O[C@H](CO[C@H]2O[C@H](C(=O)N[C@@H](CCC(=O)N[C@@H](CCC(=O)NCCCC[C@H](NC(=O)[C@@H](NC(=O)[C@H](Cc3ccccc3)NC(=O)[C@H](CCC(=O)O)NC(=O)[C@@H]3CCCCNC(=O)CC[C@H](NC(=O)[C@H](CC(=O)O)NC(=O)[C@H](CC(C)C)NC(=O)[C@H](Cc4ccc(O)cc4)NC(=O)[C@H](CCCCN)NC(=O)[C@H](CO)NC(=O)[C@H](Cc4ccc(O)cc4)NC(=O)[C@H](CC(=O)O)NC(=O)[C@H](CO)NC(=O)[C@@H](NC(=O)[C@H](Cc4ccccc4)NC(=O)[C@@H](NC(=O)CNC(=O)[C@H](CCC(N)=O)NC(=O)C(C)(C)NC(=O)[C@@H](N)Cc4c[nH]cn4)[C@@H](C)O)[C@@H](C)O)C(=O)N[C@@H](CCC(N)=O)C(=O)N[C@@H](C)C(=O)N[C@@H](C)C(=O)N3)[C@@H](C)CC)C(=O)N[C@@H](Cc3c[nH]c4ccccc34)C(=O)N[C@@H](CC(C)C)C(=O)N[C@@H](CC(C)C)C(=O)N[C@@H](CCC(N)=O)C(=O)N[C@H](C(=O)O)[C@@H](C)O)C(=O)O)C(=O)O)[C@H](O)[C@H](O)[C@H]2O)[C@@H](O)[C@H](O)[C@H]1O` [EU-A1620]: the EC50 stood at 0.051 nM at human GLP-1 receptor and 0.24 nM at human glucagon receptor.

Take `CCCCCCCCCCCCCCO[C@@H]1O[C@H](CO[C@H]2O[C@H](C(=O)N[C@@H](CCC(=O)N[C@@H](CCC(=O)NCCCC[C@H](NC(=O)[C@@H](NC(=O)[C@H](Cc3ccccc3)NC(=O)[C@H](CCC(=O)O)NC(=O)[C@@H]3CCCCNC(=O)CC[C@H](NC(=O)[C@H](CC(=O)O)NC(=O)[C@H](CC(C)C)NC(=O)[C@H](Cc4ccc(O)cc4)NC(=O)[C@H](CCCCN)NC(=O)[C@H](CO)NC(=O)[C@H](Cc4ccc(O)cc4)NC(=O)[C@H](CC(=O)O)NC(=O)[C@H](CO)NC(=O)[C@@H](NC(=O)[C@H](Cc4ccccc4)NC(=O)[C@@H](NC(=O)CNC(=O)[C@H](CCC(N)=O)NC(=O)C(C)(C)NC(=O)[C@@H](N)Cc4c[nH]cn4)[C@@H](C)O)[C@@H](C)O)C(=O)N[C@@H](CCC(N)=O)C(=O)N[C@@H](C)C(=O)N[C@@H](C)C(=O)N3)[C@@H](C)CC)C(=O)N[C@@H](Cc3c[nH]c4ccccc34)C(=O)N[C@@H](CC(C)C)C(=O)N[C@@H](CC(C)C)C(=O)N[C@@H](CCC(N)=O)C(=O)N[C@H](C(=O)O)[C@@H](C)O)C(=O)O)C(=O)O)[C@H](O)[C@H](O)[C@H]2O)[C@@H](O)[C@H](O)[C@H]1O` [EU-A1622]: the EC50 on human GLP-1 receptor is 0.774 nM; at human glucagon receptor, 2.08 nM.

With `CCCCCCCCCCCCCCO[C@@H]1O[C@H](CO[C@H]2O[C@H](C(=O)N[C@@H](CCC(=O)N[C@@H](CCC(=O)NCCCC[C@H](NC(=O)[C@@H](NC(=O)[C@H](Cc3ccccc3)NC(=O)[C@H](CCC(=O)O)NC(=O)[C@@H]3CCCCNC(=O)CC[C@H](NC(=O)[C@H](CC(=O)O)NC(=O)[C@H](CC(C)C)NC(=O)[C@H](Cc4ccc(O)cc4)NC(=O)[C@H](CCCCN)NC(=O)[C@H](CO)NC(=O)[C@H](Cc4ccc(O)cc4)NC(=O)[C@H](CC(=O)O)NC(=O)[C@H](CO)NC(=O)[C@@H](NC(=O)[C@H](Cc4ccccc4)NC(=O)[C@@H](NC(=O)CNC(=O)[C@H](CCC(N)=O)NC(=O)C(C)(C)NC(=O)[C@@H](N)Cc4c[nH]cn4)[C@@H](C)O)[C@@H](C)O)C(=O)N[C@@H](CCC(N)=O)C(=O)N[C@@H](C)C(=O)N[C@@H](C)C(=O)N3)[C@@H](C)CC)C(=O)N[C@@H](Cc3c[nH]c4ccccc34)C(=O)N[C@@H](CC(C)C)C(=O)N[C@@H](CC(C)C)C(=O)N[C@@H](CCC(N)=O)C(=O)N[C@H](C(N)=O)[C@@H](C)O)C(=O)O)C(=O)O)[C@H](O)[C@H](O)[C@H]2O)[C@@H](O)[C@H](O)[C@H]1O` [EU-A1627], the EC50 on human GLP-1 receptor is 0.304 nM; at human glucagon receptor, 0.705 nM.

With `CCCCCCCCCCCCO[C@@H]1O[C@H](C(=O)NCCCC[C@H](NC(=O)[C@@H](NC(=O)[C@H](Cc2ccccc2)NC(=O)[C@H](CCC(=O)O)NC(=O)[C@@H]2CCCCNC(=O)CC[C@H](NC(=O)[C@H](CC(=O)O)NC(=O)[C@H](CC(C)C)NC(=O)[C@H](Cc3ccc(O)cc3)NC(=O)[C@H](CCCCN)NC(=O)[C@H](CO)NC(=O)[C@H](Cc3ccc(O)cc3)NC(=O)[C@H](CC(=O)O)NC(=O)[C@H](CO)NC(=O)[C@@H](NC(=O)[C@H](Cc3ccccc3)NC(=O)[C@@H](NC(=O)CNC(=O)[C@H](CCC(N)=O)NC(=O)C(C)(C)NC(=O)[C@@H](N)Cc3c[nH]cn3)[C@@H](C)O)[C@@H](C)O)C(=O)N[C@@H](CCC(N)=O)C(=O)N[C@@H](C)C(=O)N[C@@H](C)C(=O)N2)[C@@H](C)CC)C(=O)N[C@@H](Cc2c[nH]c3ccccc23)C(=O)N[C@@H](CC(C)C)C(=O)N[C@@H](CC(C)C)C(=O)N[C@@H](CCC(N)=O)C(=O)N[C@H](C(=O)NCCOCCOCCOCCOCCC(=O)O)[C@@H](C)O)[C@@H](O)[C@H](O)[C@H]1O` [EU-A1633], the figures for the EC50 at human GLP-1 receptor and at human glucagon receptor were 0.008 nM and 0.053 nM, respectively.

`CCCCCCCCCCCCCCO[C@@H]1O[C@H](C(=O)NCCCC[C@H](NC(=O)[C@@H](NC(=O)[C@H](Cc2ccccc2)NC(=O)[C@H](CCC(=O)O)NC(=O)[C@@H]2CCCCNC(=O)CC[C@H](NC(=O)[C@H](CC(=O)O)NC(=O)[C@H](CC(C)C)NC(=O)[C@H](Cc3ccc(O)cc3)NC(=O)[C@H](CCCCN)NC(=O)[C@H](CO)NC(=O)[C@H](Cc3ccc(O)cc3)NC(=O)[C@H](CC(=O)O)NC(=O)[C@H](CO)NC(=O)[C@@H](NC(=O)[C@H](Cc3ccccc3)NC(=O)[C@@H](NC(=O)CNC(=O)[C@H](CCC(N)=O)NC(=O)C(C)(C)NC(=O)[C@@H](N)Cc3c[nH]cn3)[C@@H](C)O)[C@@H](C)O)C(=O)N[C@@H](CCC(N)=O)C(=O)N[C@@H](C)C(=O)N[C@@H](C)C(=O)N2)[C@@H](C)CC)C(=O)N[C@@H](Cc2c[nH]c3ccccc23)C(=O)N[C@@H](CC(C)C)C(=O)N[C@@H](CC(C)C)C(=O)N[C@@H](CCC(N)=O)C(=O)N[C@H](C(=O)NCCOCCOCCOCCOCCC(=O)O)[C@@H](C)O)[C@@H](O)[C@H](O)[C@H]1O` [EU-A1634]: the EC50 is 0.052 nM at human GLP-1 receptor and 0.493 nM on human glucagon receptor.
